Read-outs that look alike come from different tables or passages of the source.

This test relates to M. tuberculosis. It counts as cell-based, Mycobacterium tuberculosis (laboratory strain H37Rv). As to conditions: for Time to Positivity (Days.Hours) Experiment 2a / Time to Positivity (Days.Hours) Experiment 2b: diluted inoculum; for Time to Positivity (Days.Hours) Experiment 2a: technical repeat 2a, TB control (no peptide) 15.01; for Time to Positivity (Days.Hours) Experiment 2b: technical repeat 2b, TB control (no peptide) 15.20; for Time to Positivity (Days.Hours) Experiment 1a / Time to Positivity (Days.Hours) Experiment 1b: less diluted inoculum; for Time to Positivity (Days.Hours) Experiment 1a: technical repeat 1a, TB control (no peptide) 7.02; for Time to Positivity (Days.Hours) Experiment 1b: technical repeat 1b, TB control (no peptide) 7.01; for Average % Faster than Control: negative = slower.

Setting [1] is: peptide 10 µg/mL, overall average of the averages of experiments 1a/1b and 2a/2b.
Setting [2] is: crude peptide 10 µg/mL, average of experiments 1 and 2.
Where [3] appears, read: crude peptide 10 µg/mL, MGIT, independent experiment 1, Control (TB only) 11.10, inoculum emulsified through G25 needle.
Setting [4] is: crude peptide 10 µg/mL, MGIT, independent experiment 2, Control (TB only) 9.10, inoculum emulsified through G25 needle.

For “5: peptide from the authors' library; same sequence as P8/Designed * (FFIYVWRRR) [Peptide 5]”, under “peptide 10 µg/mL, MGIT”, the “Time to Positivity (Days.Hours) Experiment 2a” value is given as 14.06 Days.Hours, the “Time to Positivity (Days.Hours) Experiment 2b” value was 14.16 Days.Hours, the “Time to Positivity (Days.Hours) Experiment 1a” value was 5.21 Days.Hours and the “Time to Positivity (Days.Hours) Experiment 1b” value was determined as 6.08 Days.Hours. Further, the “Average % Faster than Control” value under setting [1] is 8.8%.
As for RWCFRVCYRGICYRKCR [Tachyplasin II/Crab], the “Time to Positivity (Day.Hours) Experiment 1” value came out at 10.18 Day.Hours and the “Time to Positivity (Day.Hours) Experiment 2” value was 8.06 Day.Hours. Also, the “Average % Faster than Control” value under setting [2] turned out to be 9.1%.
The matching figures for INLKAIAALVKKLL [Mastoparan-VT6/Wasp]: 10.21 Day.Hours, 8.04 Day.Hours and 9.0%.
The matching figures for IRLHRLYTWKATIYTR [PP13/Wasp *]: 10.17 Day.Hours, 8.02 Day.Hours and 10.2%.
On to “22: peptide from the authors' library (IRMRIRVLL) [Peptide 22]”, for which, for the setting “peptide 10 µg/mL, MGIT”, the “Time to Positivity (Days.Hours) Experiment 2a” value is 15.19 Days.Hours, the “Time to Positivity (Days.Hours) Experiment 2b” value is 15.10 Days.Hours, the “Time to Positivity (Days.Hours) Experiment 1a” value is on record as 6.00 Days.Hours and the “Time to Positivity (Days.Hours) Experiment 1b” value was found to be 6.07 Days.Hours. Also, the “Average % Faster than Control” value under setting [1] was 4.7%.
On to “FLPLIGRVLSGIL [Temporin A/Frog, naturally occurring peptide, APD3, frog]”, for which the “Time to Positivity (Day.Hours) Experiment 1” value under setting [3] worked out at 11.02 Day.Hours. The “Time to Positivity (Day.Hours) Experiment 2” value under setting [4] came out at 9.00 Day.Hours. In addition, the “Average % Faster than Control” value under setting [2] was determined as 3.7%.
In the case of “VNWKKILGKIIKVVK [Lasioglossin LL-III/Bee]”, the “Time to Positivity (Day.Hours) Experiment 1” value is listed as 9.18 Day.Hours and the “Time to Positivity (Day.Hours) Experiment 2” value turned out to be 8.08 Day.Hours. Moreover, under setting [2], the “Average % Faster than Control” value is reported as 13.1%.
As for “FLPLLASLFSRLF [Temporin-1Oc/Frog, naturally occurring peptide, APD3, frog]”, under setting [3], the “Time to Positivity (Day.Hours) Experiment 1” value came to 11.10 Day.Hours. Besides, the “Time to Positivity (Day.Hours) Experiment 2” value under setting [4] turned out to be 8.17 Day.Hours. Moreover, the “Average % Faster than Control” value under setting [2] stood at 3.8%.
Regarding “61: peptide from the authors' library (ILKWKTKWWKWFR) [Peptide 61]”, for the setting “peptide 10 µg/mL, MGIT”, the “Time to Positivity (Days.Hours) Experiment 2a” value came out at 13.11 Days.Hours, the “Time to Positivity (Days.Hours) Experiment 2b” value turned out to be 14.21 Days.Hours, the “Time to Positivity (Days.Hours) Experiment 1a” value is listed as 6.20 Days.Hours and the “Time to Positivity (Days.Hours) Experiment 1b” value was determined as 5.23 Days.Hours. Also, the “Average % Faster than Control” value under setting [1] stood at 10.4%.
As for “71: peptide from the authors' library (RLWRIVVIRVKR) [Peptide 71]”, under “peptide 10 µg/mL, MGIT”, the “Time to Positivity (Days.Hours) Experiment 2a” value was found to be 14.01 Days.Hours, the “Time to Positivity (Days.Hours) Experiment 2b” value is recorded as 14.02 Days.Hours, the “Time to Positivity (Days.Hours) Experiment 1a” value amounted to 6.04 Days.Hours and the “Time to Positivity (Days.Hours) Experiment 1b” value is reported as 6.06 Days.Hours. Also, the “Average % Faster than Control” value under setting [1] worked out at 9.4%.
Take “62: peptide from the authors' library (ILKWKMFKWKWFR) [Peptide 62]”: under “peptide 10 µg/mL, MGIT”, the “Effect on TTP of MTB in words” value is listed as “delayed TTP”, the “Time to Positivity (Days.Hours) Experiment 2a” value is reported as 16.20 Days.Hours, the “Time to Positivity (Days.Hours) Experiment 2b” value is 17.16 Days.Hours and the “Time to Positivity (Days.Hours) Experiment 1a” value was determined as 6.07 Days.Hours. Further, under “peptide 10 µg/mL, MGIT”, the “Time to Positivity (Days.Hours) Experiment 1b” value is on record as 7.02 Days.Hours. Moreover, under setting [1], the “Average % Faster than Control” value is reported as −3.4%.
Turning to FFIYVWRRR [P8/Designed *], the “Time to Positivity (Day.Hours) Experiment 1” value is given as 11.16 Day.Hours and the “Time to Positivity (Day.Hours) Experiment 2” value was determined as 8.22 Day.Hours. Also, under setting [2], the “Average % Faster than Control” value was determined as 1.6%.
Take “FFGSVLKLIPKIL [Temporin-PTa/Frog, naturally occurring peptide, APD3, frog]”: the “Time to Positivity (Day.Hours) Experiment 1” value under setting [3] worked out at 11.07 Day.Hours. For the same substance, the “Time to Positivity (Day.Hours) Experiment 2” value under setting [4] is listed as 8.08 Day.Hours. Besides, under setting [2], the “Average % Faster than Control” value turned out to be 6.3%.
Turning to “66: peptide from the authors' library (RRARIVVIRVAR) [Peptide 66]”, where the note is “peptide 10 µg/mL, MGIT”, the “Time to Positivity (Days.Hours) Experiment 2a” value amounted to 17.06 Days.Hours, the “Time to Positivity (Days.Hours) Experiment 2b” value is given as 17.16 Days.Hours, the “Time to Positivity (Days.Hours) Experiment 1a” value was 6.05 Days.Hours and the “Time to Positivity (Days.Hours) Experiment 1b” value was determined as 6.16 Days.Hours. The “Average % Faster than Control” value under setting [1] is −3.5%.
Consider FITLLLRKFICSITKKC [Brevinin-1Ta/Frog], for which the “Time to Positivity (Day.Hours) Experiment 1” value was 11.07 Day.Hours and the “Time to Positivity (Day.Hours) Experiment 2” value amounted to 8.05 Day.Hours. For the same substance, the “Average % Faster than Control” value under setting [2] is 7.0%.
Consider “VFHLLGKIIHHVGNFV [Clavanin C/Sea squirt, naturally occurring peptide, APD3, sea squirt]”, for which the “Time to Positivity (Day.Hours) Experiment 1” value under setting [3] is recorded as 10.21 Day.Hours. Also, the “Time to Positivity (Day.Hours) Experiment 2” value under setting [4] amounted to 8.12 Day.Hours. Moreover, the “Average % Faster than Control” value under setting [2] worked out at 7.2%.
For the substance FLGALAKIISGIF [Temporin-1TSa/Frog], the “Time to Positivity (Day.Hours) Experiment 1” value is 11.00 Day.Hours and the “Time to Positivity (Day.Hours) Experiment 2” value is recorded as 8.02 Day.Hours. Moreover, under setting [2], the “Average % Faster than Control” value was determined as 8.9%.
For the substance KRRWRIWLV [P9/Designed], the “Time to Positivity (Day.Hours) Experiment 1” value is listed as 11.10 Day.Hours and the “Time to Positivity (Day.Hours) Experiment 2” value worked out at 8.14 Day.Hours. The “Average % Faster than Control” value under setting [2] is 4.4%.
Regarding “29: peptide from the authors' library (RWRWWWRVY) [Peptide 29]”, for the setting “peptide 10 µg/mL, MGIT”, the “Time to Positivity (Days.Hours) Experiment 2a” value amounted to 15.12 Days.Hours, the “Time to Positivity (Days.Hours) Experiment 2b” value worked out at 15.01 Days.Hours, the “Time to Positivity (Days.Hours) Experiment 1a” value came to 6.13 Days.Hours and the “Time to Positivity (Days.Hours) Experiment 1b” value was 6.00 Days.Hours. The “Average % Faster than Control” value under setting [1] stood at 4.9%.
Take WCFRVCYKGFCYRKCR [Polyphemusin/Crab *]: the “Time to Positivity (Day.Hours) Experiment 1” value worked out at 11.05 Day.Hours and the “Time to Positivity (Day.Hours) Experiment 2” value was 8.13 Day.Hours. Further, the “Average % Faster than Control” value under setting [2] came to 5.6%.
Take FFPYAALKWLRKLLKK [P-04/Tunicate]: the “Time to Positivity (Day.Hours) Experiment 1” value is 11.02 Day.Hours and the “Time to Positivity (Day.Hours) Experiment 2” value is listed as 8.08 Day.Hours. The “Average % Faster than Control” value under setting [2] is recorded as 7.2%.
For “Bombolitin V/Bee: naturally occurring peptide, APD3, bee (INVLGILGLLGKALSHL)”, in that order: 10.22 Day.Hours, 8.13 Day.Hours and 6.8%.
For FVQWFSKFLGRIL [Temporin L/Frog], in that order: 11.06 Day.Hours, 8.05 Day.Hours and 7.1%.
In the case of FLPLFASLIGKLL [Temporin-1Cb/Frog], the “Time to Positivity (Day.Hours) Experiment 1” value is recorded as 11.08 Day.Hours and the “Time to Positivity (Day.Hours) Experiment 2” value amounted to 8.06 Day.Hours. Moreover, the “Average % Faster than Control” value under setting [2] amounted to 6.6%.
For “Pd_mastoparan PDD-B/Wasp: naturally occurring peptide, APD3, wasp (INWLKLGKKILGAL)”, in that order: 11.06 Day.Hours, 8.09 Day.Hours and 6.3%.
For “60: peptide from the authors' library (ILKWKIFKWKWFR) [Peptide 60]”, under “peptide 10 µg/mL, MGIT”, the “Time to Positivity (Days.Hours) Experiment 2a” value is 14.19 Days.Hours, the “Time to Positivity (Days.Hours) Experiment 2b” value stood at 14.16 Days.Hours, the “Time to Positivity (Days.Hours) Experiment 1a” value came out at 6.03 Days.Hours and the “Time to Positivity (Days.Hours) Experiment 1b” value is recorded as 6.02 Days.Hours. The “Average % Faster than Control” value under setting [1] was 7.9%.
On to VRRFPWWWPFLRR [Tritrpticin/Pig], for which the “Time to Positivity (Day.Hours) Experiment 1” value was 11.08 Day.Hours and the “Time to Positivity (Day.Hours) Experiment 2” value was determined as 9.13 Day.Hours. The “Average % Faster than Control” value under setting [2] is −0.3%.
The matching figures for “Eumenitin/Wasp: naturally occurring peptide, APD3, wasp (LNLKGIFKKVASLLT)”: 11.00 Day.Hours, 8.08 Day.Hours and 7.6%.
For GLGSLVGNALRIGAKLL [CPF-AM4/Frog], in that order: 10.17 Day.Hours, 8.06 Day.Hours and 9.3%.
The matching figures for ILPWKWPWWPWRR [Indolicidin/Cow]: 11.03 Day.Hours, 8.18 Day.Hours and 4.8%.
On to KKLLGKLLKKLGKLLL [GLK-19/Designed *], for which the “Time to Positivity (Day.Hours) Experiment 1” value was determined as 10.17 Day.Hours and the “Time to Positivity (Day.Hours) Experiment 2” value turned out to be 8.04 Day.Hours. The “Average % Faster than Control” value under setting [2] was 9.7%.
For SLLSLIRKLIT [Decoralin/Wasp], in that order: 11.12 Day.Hours, 8.04 Day.Hours and 6.3%.
